Measured values: patent US10875799B2, “System and method for generation of point of use reactive oxygen species” (Clean Chemistry, Inc., priority 2012, dated 2020)

Key:
[1] = Methylene blue (MB) dye oxidation / color removal test; details: hydrogen peroxide alone, after several days
[2] = cited from earlier work

Row | SMILES | effect on methylene blue [1] | pKa [2]
1 | OO [hydrogen peroxide] | no visible effect | 11.6
2 | CC(=O)OO [peroxyacetic acid] |  | 8.3
3 | [O]O [superoxide] |  | 4.8
